The values that follow come from ChEMBL document CHEMBL1697731, “Cheminformatics analysis of assertions mined from literature that describe drug-induced liver injury in different species” (Chem Res Toxicol, 2010).

Data set [1] has as its system Hepatotoxicity. Description: Literature-mined compound from Fourches et al multi-species drug-induced liver injury (DILI) dataset, effect in non-rodents.
In data set [2] the test system is Hepatotoxicity. Description: Literature-mined compound from Fourches et al multi-species drug-induced liver injury (DILI) dataset, effect in rodents. To be noted: rodentia.
Data set [3] has as its system Hepatotoxicity. Description: Literature-mined compound from Fourches et al multi-species drug-induced liver injury (DILI) dataset, effect in humans. Conditions: human.

On to `CC(C)C[C@H](NC(=O)[C@@H](Cc1ccc2ccccc2c1)NC(=O)[C@H](Cc1ccc(O)cc1)NC(=O)[C@H](CO)NC(=O)[C@H](Cc1c[nH]c2ccccc12)NC(=O)[C@H](Cc1c[nH]cn1)NC(=O)[C@@H]1CCC(=O)N1)C(=O)N[C@@H](CCCNC(=N)N)C(=O)N1CCC[C@H]1C(=O)NCC(N)=O` [NAFARELIN], for which the Hepatotoxicity result in the data set on Hepatotoxicity [1] was “no drug-induced liver injury reported”; with Hepatotoxicity [2] it was “no drug-induced liver injury reported”; in the data set on Hepatotoxicity [3] it was “drug-induced liver injury reported”.

For `CCn1cc(C(=O)O)c(=O)c2ccc(C)nc21` [NALIDIXIC ACID], the results for the Hepatotoxicity result with Hepatotoxicity [1], with Hepatotoxicity [2] and in the data set with Hepatotoxicity [3] were “no drug-induced liver injury reported”, “drug-induced liver injury reported” and “drug-induced liver injury reported”, respectively.

Turning to `C=CCN1CC[C@]23c4c5ccc(O)c4O[C@H]2[C@@H](O)C=C[C@H]3[C@H]1C5` [NALORPHINE], the figures for the Hepatotoxicity result in the data set on Hepatotoxicity [1], with Hepatotoxicity [2] and with Hepatotoxicity [3] were “no drug-induced liver injury reported”, “drug-induced liver injury reported” and “no drug-induced liver injury reported”, respectively.

Consider `C=CCN1CC[C@]23c4c5ccc(O)c4O[C@H]2C(=O)CC[C@@]3(O)[C@H]1C5` [NALOXONE], for which the Hepatotoxicity result with Hepatotoxicity [1] is “no drug-induced liver injury reported”; with Hepatotoxicity [2], “drug-induced liver injury reported”; in the data set with Hepatotoxicity [3], “no drug-induced liver injury reported”.

As for `O=C1CC[C@@]2(O)[C@H]3Cc4ccc(O)c5c4[C@@]2(CCN3CC2CC2)[C@H]1O5` [NALTREXONE], the Hepatotoxicity result with Hepatotoxicity [1] is reported as “no drug-induced liver injury reported”; in the data set with Hepatotoxicity [2], “drug-induced liver injury reported”; in the data set on Hepatotoxicity [3] it was “drug-induced liver injury reported”.

For `CCCCCCCCCC(=O)O[C@H]1CC[C@H]2[C@@H]3CCC4=CC(=O)CC[C@@H]4[C@H]3CC[C@]12C` [NANDROLONE DECANOATE], the Hepatotoxicity entry with Hepatotoxicity [1] is given as “no drug-induced liver injury reported”; with Hepatotoxicity [2] it was “drug-induced liver injury reported”; in the data set on Hepatotoxicity [3] it was “no drug-induced liver injury reported”.

Turning to `COc1ccc2cc([C@H](C)C(=O)O)ccc2c1` [NAPROXEN], the Hepatotoxicity result was “no drug-induced liver injury reported” in the data set on Hepatotoxicity [1] (Liver), “drug-induced liver injury reported” in the data set on Hepatotoxicity [2] (Liver) and “drug-induced liver injury reported” in the data set on Hepatotoxicity [3] (Liver).

Take `C[C@@H]1C/C=C/C=C/C=C/C=C/[C@H](O[C@@H]2O[C@H](C)[C@@H](O)[C@H](N)[C@@H]2O)C[C@@H]2O[C@](O)(C[C@@H](O)C[C@H]3O[C@@H]3/C=C/C(=O)O1)C[C@H](O)[C@H]2C(=O)O` [NATAMYCIN]: the Hepatotoxicity entry in the data set on Hepatotoxicity [1] is “drug-induced liver injury reported”; in the data set on Hepatotoxicity [2], “no drug-induced liver injury reported”; in the data set with Hepatotoxicity [3], “no drug-induced liver injury reported”.

With `CCc1nn(CCCN2CCN(c3cccc(Cl)c3)CC2)c(=O)n1CCOc1ccccc1` [NEFAZODONE], the Hepatotoxicity result with Hepatotoxicity [1] is on record as “no drug-induced liver injury reported”; in the data set with Hepatotoxicity [2], “no drug-induced liver injury reported”; in the data set with Hepatotoxicity [3], “drug-induced liver injury reported”.

Take `CN(C)C(=O)Oc1cccc([N+](C)(C)C)c1.[Br-]` [NEOSTIGMINE BROMIDE]: the Hepatotoxicity result with Hepatotoxicity [1] is listed as “no drug-induced liver injury reported”; with Hepatotoxicity [2], “drug-induced liver injury reported”; in the data set on Hepatotoxicity [3], “no drug-induced liver injury reported”.

Turning to `CCN[C@@H]1C[C@H](N)[C@@H](O[C@H]2OC(CN)=CC[C@H]2N)[C@H](O)[C@H]1O[C@H]1OC[C@](C)(O)[C@H](NC)[C@H]1O` [NETILMICIN], the Hepatotoxicity entry is on record as “no drug-induced liver injury reported” with Hepatotoxicity [1], “drug-induced liver injury reported” with Hepatotoxicity [2] and “drug-induced liver injury reported” with Hepatotoxicity [3].

With `Cc1ccnc2c1NC(=O)c1cccnc1N2C1CC1` [NEVIRAPINE], the Hepatotoxicity entry in the data set with Hepatotoxicity [1] was “no drug-induced liver injury reported”; in the data set on Hepatotoxicity [2], “no drug-induced liver injury reported”; in the data set on Hepatotoxicity [3], “drug-induced liver injury reported”.

Take `NC(=O)c1cccnc1` [NIACINAMIDE]: the Hepatotoxicity entry with Hepatotoxicity [1] is reported as “no drug-induced liver injury reported”; with Hepatotoxicity [2], “drug-induced liver injury reported”; with Hepatotoxicity [3] it was “drug-induced liver injury reported”.

Take `O=C(CCNNC(=O)c1ccncc1)NCc1ccccc1` [NIALAMIDE]: the figures for the Hepatotoxicity result in the data set on Hepatotoxicity [1], in the data set on Hepatotoxicity [2] and in the data set on Hepatotoxicity [3] were “no drug-induced liver injury reported”, “drug-induced liver injury reported” and “no drug-induced liver injury reported”, respectively.

With `CO[C@]12C[C@@H](COC(=O)c3cncc(Br)c3)CN(C)[C@@H]1Cc1cn(C)c3cccc2c13` [NICERGOLINE], the Hepatotoxicity result in the data set on Hepatotoxicity [1] is listed as “no drug-induced liver injury reported”; in the data set on Hepatotoxicity [2], “drug-induced liver injury reported”; with Hepatotoxicity [3], “no drug-induced liver injury reported”.

Take `O=C(OCC(COC(=O)c1cccnc1)(COC(=O)c1cccnc1)COC(=O)c1cccnc1)c1cccnc1` [NICERITROL]: the Hepatotoxicity entry in the data set on Hepatotoxicity [1] is reported as “drug-induced liver injury reported”; in the data set on Hepatotoxicity [2] it was “no drug-induced liver injury reported”; in the data set with Hepatotoxicity [3] it was “no drug-induced liver injury reported”.

As for `O=C(NCCO[N+](=O)[O-])c1cccnc1` [NICORANDIL], the Hepatotoxicity result in the data set with Hepatotoxicity [1] was “no drug-induced liver injury reported”; with Hepatotoxicity [2], “drug-induced liver injury reported”; with Hepatotoxicity [3] it was “no drug-induced liver injury reported”.

Take `CN1CCC[C@H]1c1cccnc1` [NICOTINE]: the results for the Hepatotoxicity result with Hepatotoxicity [1] (Liver), with Hepatotoxicity [2] (Liver) and with Hepatotoxicity [3] (Liver) were “no drug-induced liver injury reported”, “drug-induced liver injury reported” and “drug-induced liver injury reported”, respectively.

As for `COC(=O)C1=C(C)NC(C)=C(C(=O)OC)C1c1ccccc1[N+](=O)[O-]` [NIFEDIPINE], the Hepatotoxicity entry with Hepatotoxicity [1], in the data set with Hepatotoxicity [2] and with Hepatotoxicity [3] was “drug-induced liver injury reported” in each case.

As for `O=C(O)c1cccnc1Nc1cccc(C(F)(F)F)c1` [NIFLUMIC ACID], the values for the Hepatotoxicity entry in the data set on Hepatotoxicity [1], in the data set with Hepatotoxicity [2] and with Hepatotoxicity [3] were “no drug-induced liver injury reported”, “drug-induced liver injury reported” and “no drug-induced liver injury reported”, respectively.

For the compound `CC1CS(=O)(=O)CCN1/N=C/c1ccc([N+](=O)[O-])o1` (stereo unspecified) [NIFURTIMOX], the Hepatotoxicity result with Hepatotoxicity [1] (Liver) is “no drug-induced liver injury reported”; with Hepatotoxicity [2] (Liver), “drug-induced liver injury reported”; in the data set with Hepatotoxicity [3] (Liver) it was “no drug-induced liver injury reported”.

As for `O=C1CN(/N=C/c2ccc([N+](=O)[O-])o2)C(=O)N1CO` [NIFURTOINOL], the Hepatotoxicity result was “no drug-induced liver injury reported” in the data set with Hepatotoxicity [1], “no drug-induced liver injury reported” in the data set on Hepatotoxicity [2] and “drug-induced liver injury reported” with Hepatotoxicity [3].

`CC1(C)NC(=O)N(c2ccc([N+](=O)[O-])c(C(F)(F)F)c2)C1=O` [NILUTAMIDE]: the figures for the Hepatotoxicity entry in the data set on Hepatotoxicity [1] (Liver), with Hepatotoxicity [2] (Liver) and in the data set with Hepatotoxicity [3] (Liver) were “no drug-induced liver injury reported”, “drug-induced liver injury reported” and “drug-induced liver injury reported”, respectively.

As for `COCCOC(=O)C1=C(C)NC(C)=C(C(=O)OC(C)C)C1c1cccc([N+](=O)[O-])c1` (stereo unspecified) [NIMODIPINE], the Hepatotoxicity result with Hepatotoxicity [1] was “no drug-induced liver injury reported”; in the data set with Hepatotoxicity [2] it was “drug-induced liver injury reported”; with Hepatotoxicity [3] it was “drug-induced liver injury reported”.

Consider `O=C1NCCN1c1ncc([N+](=O)[O-])s1` [NIRIDAZOLE], for which the Hepatotoxicity result with Hepatotoxicity [1] was “no drug-induced liver injury reported”; in the data set on Hepatotoxicity [2] it was “drug-induced liver injury reported”; with Hepatotoxicity [3], “no drug-induced liver injury reported”.

Regarding `COC(=O)C1=C(C)NC(C)=C(C(=O)OCC(C)C)C1c1ccccc1[N+](=O)[O-]` (stereo unspecified) [NISOLDIPINE], the Hepatotoxicity entry in the data set with Hepatotoxicity [1], in the data set on Hepatotoxicity [2] and in the data set with Hepatotoxicity [3] was “drug-induced liver injury reported” in each case.

Take `O=C1CCCC(=O)C1C(=O)c1ccc(C(F)(F)F)cc1[N+](=O)[O-]` [NITISINONE]: the values for the Hepatotoxicity entry in the data set with Hepatotoxicity [1], in the data set with Hepatotoxicity [2] and with Hepatotoxicity [3] were “drug-induced liver injury reported”, “drug-induced liver injury reported” and “no drug-induced liver injury reported”, respectively.

With `O=C1CN=C(c2ccccc2)c2cc([N+](=O)[O-])ccc2N1` [NITRAZEPAM], the Hepatotoxicity entry with Hepatotoxicity [1] is “no drug-induced liver injury reported”; in the data set with Hepatotoxicity [2], “drug-induced liver injury reported”; with Hepatotoxicity [3], “no drug-induced liver injury reported”.

In the case of `CCOC(=O)C1=C(C)NC(C)=C(C(=O)OC)C1c1cccc([N+](=O)[O-])c1` (stereo unspecified) [NITRENDIPINE], the Hepatotoxicity entry in the data set on Hepatotoxicity [1] was “no drug-induced liver injury reported”; with Hepatotoxicity [2] it was “drug-induced liver injury reported”; in the data set with Hepatotoxicity [3], “drug-induced liver injury reported”.

On to `O=C1CN(/N=C/c2ccc([N+](=O)[O-])o2)C(=O)N1` [NITROFURANTOIN], for which the Hepatotoxicity entry with Hepatotoxicity [1] (Liver), with Hepatotoxicity [2] (Liver) and in the data set on Hepatotoxicity [3] (Liver) was “drug-induced liver injury reported” throughout.

`NC(=O)N/N=C/c1ccc([N+](=O)[O-])o1` [NITROFURAZONE]: the Hepatotoxicity entry with Hepatotoxicity [1] is “no drug-induced liver injury reported”; with Hepatotoxicity [2], “drug-induced liver injury reported”; with Hepatotoxicity [3] it was “no drug-induced liver injury reported”.

Turning to `O=[N+]([O-])OCC(CO[N+](=O)[O-])O[N+](=O)[O-]` [NITROGLYCERIN], the results for the Hepatotoxicity entry in the data set on Hepatotoxicity [1], in the data set on Hepatotoxicity [2] and in the data set on Hepatotoxicity [3] were “no drug-induced liver injury reported”, “drug-induced liver injury reported” and “drug-induced liver injury reported”, respectively.
